# Where “and” joins values, the source holds several entries; their conditions need not be identical. Equal entries are not always repeated.
# Tests used:
# [1] = tested on: MDR Gram-negative bacteria clinical isolates; test: Checkerboard assay, summary over strains; type: cell-based; conditions: of all 14 clinical isolates; number (%)
# Protocol: (§1) The interaction between the compounds and the antibiotics was evaluated using the fractional inhibitory concentration (FIC) index. FIC indices of ≤0.5 is synergistic, 0.5 < × ≤ 4 is additive, whereas >4 is antagonistic ([34]).
# (§2) The antibiotic and compounds were serially diluted 2-fold in CAMHB along the x- and y-axis, respectively, on a 96-well plate that was subsequently incubated with equal volumes of bacterial inoculum overnight at 37°C. Wells containing only media were used as negative controls, and wells containing only bacteria were used as positive controls. Synergy was measured by the FIC index, which is the summation of the individual FICs of the antibiotic and the compound. The FIC is calculated by dividing the MIC of one agent in the presence of another by the MIC of the agent alone. Turbidity was confirmed with a Molecular Devices (United States) EMax Plus microplate reader at a wavelength of 590 nm. The FBS studies were conducted by following a previously published protocol ([29], [50]). The FBS was inactivated by heating at 56°C for 30 min with constant swirling.
# [2] = tested on: E. cloacae; test: Checkerboard assay (antibiotic potentiation); type: cell-based, Enterobacter cloacae; conditions: E. cloacae 121887 (colistin-resistant)
# Protocol: (§3) The interaction between the compounds and the antibiotics was evaluated using the fractional inhibitory concentration (FIC) index. FIC indices of ≤0.5 is synergistic, 0.5 < × ≤ 4 is additive, whereas >4 is antagonistic ([34]). […] .
# (§4) The bacterial isolates were acquired from ATCC or the Canadian Ward Surveillance (CANWARD) study ([56]). CANWARD isolates were collected from infected patients admitted to participating medical centers across Canada.
# as §2
# [3] = tested on: E. coli; test: Checkerboard assay (antibiotic potentiation); type: cell-based, Escherichia coli; conditions: for Interpretation: antibiotic + compound 1; for MICantibiotic + compound: antibiotic MIC with 8 µg/mL (5 µM) compound 1; for MICantibiotic: antibiotic alone; for Potentiation: of antibiotic by 8 µg/mL (5 µM) compound 1
# Protocol: as §1
# (§5) Synergy was measured by the FIC index, which is the summation of the individual FICs of the antibiotic and the compound. The FIC is calculated by dividing the MIC of one agent in the presence of another by the MIC of the agent alone. […] The FBS studies were conducted by following a previously published protocol ([29], [50]). The FBS was inactivated by heating at 56°C for 30 min with constant swirling.
# [4] = tested on: P. aeruginosa; test: Checkerboard assay (antibiotic potentiation); type: cell-based, Pseudomonas aeruginosa; conditions: for MICantibiotic: antibiotic alone
# Protocol: as §1, §5
# [5] = tested on: A. baumannii; test: Checkerboard assay (antibiotic potentiation); type: cell-based, Acinetobacter baumannii; design: key to FIC index: sum of FICs; ≤0.5 synergistic, 0.5–4 additive, >4 antagonistic; conditions: for MICantibiotic: antibiotic alone
# Protocol: as §3, §4, §2
# [6] = tested on: K. pneumoniae; test: Checkerboard assay (antibiotic potentiation); type: cell-based, Klebsiella pneumoniae; conditions: for MICantibiotic + compound: antibiotic MIC with 8 µg/mL (5 µM) compound 1; for MICantibiotic: antibiotic alone
# Protocol: as §1, §5
# [7] = E. coli 94393 (colistin-resistant)
# [8] = E. coli 94474 (colistin-resistant)
# [9] = P. aeruginosa 262-101856, antibiotic + compound 1
# [10] = P. aeruginosa 264-105354, antibiotic + compound 1
# [11] = P. aeruginosa 114228 (colistin-resistant), antibiotic + compound 1
# [12] = A. baumannii 110193, antibiotic + compound 1
# [13] = A. baumannii ATCC 17978, antibiotic + compound 1
# [14] = K. pneumoniae 113250 (colistin-resistant)
compound,measurement,setting,value
CN(C)c1ccc(O)c2c1C[C@H]1C[C@H]3[C@H](N(C)C)C(O)=C(C(N)=O)C(=O)[C@@]3(O)C(O)=C1C2=O [Minocycline],clinical isolates in which the antibiotic was synergized by compound 1,[1],8 (57%) strains
same,Interpretation,[2]; antibiotic + compound 1,Additive (0.5 < × ≤ 4 is additive)
same,MICantibiotic + compound,[2]; antibiotic MIC with 8 µg/mL (5 µM) compound 1,0.5 µg/mL
same,MICantibiotic,[2]; antibiotic alone,0.5 µg/mL
same,Potentiation,[2]; of antibiotic by 8 µg/mL (5 µM) compound 1,1 fold
same,Interpretation,[3]; [7],Synergy (FIC indices of ≤0.5 is synergistic)
same,MICantibiotic + compound,[3]; [7],0.125 µg/mL
same,MICantibiotic,[3]; [7],0.5 µg/mL
same,Potentiation,[3]; [7],4 fold
same,Interpretation,[3]; [8],Synergy (FIC indices of ≤0.5 is synergistic)
same,MICantibiotic + compound,[3]; [8],8 µg/mL
same,MICantibiotic,[3]; [8],64 µg/mL
same,Potentiation,[3]; [8],8 fold
same,Interpretation,"[4]; P. aeruginosa 259-96916, antibiotic + compound 1",Synergy (FIC indices of ≤0.5 is synergistic)
same,MICantibiotic + compound,"[4]; P. aeruginosa 259-96916, antibiotic MIC with 8 µg/mL (5 µM) compound 1",0.5 µg/mL
same,MICantibiotic,[4]; P. aeruginosa 259-96916,64 µg/mL
same,Potentiation,"[4]; P. aeruginosa 259-96916, of antibiotic by 8 µg/mL (5 µM) compound 1",128 fold
same,FIC index,[4]; [9],x < 0.078
same,Interpretation,[4]; [9],Synergy (FIC indices of ≤0.5 is synergistic)
same,MICantibiotic + compound,"[4]; P. aeruginosa 262-101856, antibiotic MIC with 8 µg/mL (5 µM) compound 1",2 µg/mL
same,MICantibiotic,[4]; P. aeruginosa 262-101856,>128 µg/mL
same,Potentiation,"[4]; P. aeruginosa 262-101856, of antibiotic by 8 µg/mL (5 µM) compound 1",≥128-fold
same,FIC index,[4]; [10],x < 0.070
same,Interpretation,[4]; [10],Synergy (FIC indices of ≤0.5 is synergistic)
same,MICantibiotic + compound,"[4]; P. aeruginosa 264-105354, antibiotic MIC with 8 µg/mL (5 µM) compound 1",0.5 µg/mL
same,MICantibiotic,[4]; P. aeruginosa 264-105354,>64 µg/mL
same,Potentiation,"[4]; P. aeruginosa 264-105354, of antibiotic by 8 µg/mL (5 µM) compound 1",≥256-fold
same,Interpretation,"[4]; P. aeruginosa 101243 (colistin-resistant), antibiotic + compound 1",Synergy (FIC indices of ≤0.5 is synergistic)
same,MICantibiotic + compound,"[4]; P. aeruginosa 101243 (colistin-resistant), antibiotic MIC with 8 µg/mL (5 µM) compound 1",4 µg/mL
same,MICantibiotic,[4]; P. aeruginosa 101243 (colistin-resistant),16 µg/mL
same,Potentiation,"[4]; P. aeruginosa 101243 (colistin-resistant), of antibiotic by 8 µg/mL (5 µM) compound 1",4 fold
same,FIC index,[4]; [11],x < 0.313
same,Interpretation,[4]; [11],Synergy (FIC indices of ≤0.5 is synergistic)
same,MICantibiotic + compound,"[4]; P. aeruginosa 114228 (colistin-resistant), antibiotic MIC with 8 µg/mL (5 µM) compound 1",16 µg/mL
same,MICantibiotic,[4]; P. aeruginosa 114228 (colistin-resistant),>64 µg/mL
same,Potentiation,"[4]; P. aeruginosa 114228 (colistin-resistant), of antibiotic by 8 µg/mL (5 µM) compound 1",≥8-fold
same,Interpretation,"[4]; P. aeruginosa PAO1, antibiotic + compound 1",Synergy (FIC indices of ≤0.5 is synergistic)
same,Interpretation,"[4]; P. aeruginosa PAO1, antibiotic + compound 3",Additive (0.5 < × ≤ 4 is additive)
same,MICantibiotic + compound,"[4]; P. aeruginosa PAO1, antibiotic MIC with 8 µg/mL (5 µM) compound 1",0.5 µg/mL
same,MICantibiotic + compound,"[4]; P. aeruginosa PAO1, antibiotic MIC with 8 µg/mL (5 µM) compound 3",64 µg/mL
same,MICantibiotic,[4]; P. aeruginosa PAO1,64 µg/mL and 32 µg/mL
same,Potentiation,"[4]; P. aeruginosa PAO1, of antibiotic by 8 µg/mL (5 µM) compound 1",64 fold
same,Potentiation,"[4]; P. aeruginosa PAO1, of antibiotic by 8 µg/mL (5 µM) compound 3",1 fold
same,Interpretation,"[5]; A. baumannii 92247 (colistin-resistant), antibiotic + compound 1",Additive (0.5 < × ≤ 4 is additive)
same,MICantibiotic + compound,"[5]; A. baumannii 92247 (colistin-resistant), antibiotic MIC with 4 µg/mL (2 µM) compound 1",0.25 µg/mL
same,MICantibiotic,[5]; A. baumannii 92247 (colistin-resistant),0.25 µg/mL
same,Potentiation,"[5]; A. baumannii 92247 (colistin-resistant), of antibiotic by 4 µg/mL (2 µM) compound 1",1 fold
same,FIC index,[5]; [12],0.75
same,Interpretation,[5]; [12],Additive (0.5 < × ≤ 4 is additive)
same,MICantibiotic + compound,"[5]; A. baumannii 110193, antibiotic MIC with 4 µg/mL (2 µM) compound 1",2 µg/mL
same,MICantibiotic,[5]; A. baumannii 110193,2 µg/mL
same,Potentiation,"[5]; A. baumannii 110193, of antibiotic by 4 µg/mL (2 µM) compound 1",1 fold
same,Interpretation,"[5]; A. baumannii AB027, antibiotic + compound 1",Additive (0.5 < × ≤ 4 is additive)
same,MICantibiotic + compound,"[5]; A. baumannii AB027, antibiotic MIC with 4 µg/mL (2 µM) compound 1",1 µg/mL
same,MICantibiotic,[5]; A. baumannii AB027,2 µg/mL
same,Potentiation,"[5]; A. baumannii AB027, of antibiotic by 4 µg/mL (2 µM) compound 1",2 fold
same,Interpretation,"[5]; A. baumannii AB031, antibiotic + compound 1",Additive (0.5 < × ≤ 4 is additive)
same,MICantibiotic + compound,"[5]; A. baumannii AB031, antibiotic MIC with 4 µg/mL (2 µM) compound 1",1 µg/mL
same,MICantibiotic,[5]; A. baumannii AB031,2 µg/mL
same,Potentiation,"[5]; A. baumannii AB031, of antibiotic by 4 µg/mL (2 µM) compound 1",2 fold
same,FIC index,[5]; [13],0.254
same,Interpretation,[5]; [13],Synergy (FIC indices of ≤0.5 is synergistic)
same,Interpretation,"[5]; A. baumannii ATCC 17978, antibiotic + compound 3",Additive (0.5 < × ≤ 4 is additive)
same,MICantibiotic + compound,"[5]; A. baumannii ATCC 17978, antibiotic MIC with 8 µg/mL (5 µM) compound 3",0.125 µg/mL
same,MICantibiotic + compound,"[5]; A. baumannii ATCC 17978, antibiotic MIC with ¼ MIC (≤5 µM) of compound 1",0.004 µg/mL
same,Potentiation,"[5]; A. baumannii ATCC 17978, of antibiotic by 8 µg/mL (5 µM) compound 3",1 fold
same,Potentiation,"[5]; A. baumannii ATCC 17978, of antibiotic by ¼ MIC (≤5 µM) of compound 1",256 fold
same,MICantibiotic + compound,[6]; [14],>4 µg/mL
same,MICantibiotic,[6]; [14],>4 µg/mL
same,Interpretation,"[6]; K. pneumoniae 116381, antibiotic + compound 1",Synergy (FIC indices of ≤0.5 is synergistic)
same,MICantibiotic + compound,[6]; K. pneumoniae 116381,4 µg/mL
same,MICantibiotic,[6]; K. pneumoniae 116381,128 µg/mL
same,Potentiation,"[6]; K. pneumoniae 116381, of antibiotic by 8 µg/mL (5 µM) compound 1",32 fold

# From article PMC12587545, “Noncytotoxic polymyxin derivatives enhance antibiotic action against multidrug-resistant Gram-negative bacteria” (Antimicrobial Agents and Chemotherapy, 2025)
